Results as given in patent US10293001B2, “Compositions and methods for restoring or rejuvenating stem/progenitor cell function” (University of Pittsburgh—Of the Commonwealth System of …, priority 2012, dated 2019).

Columns and labels:
[1] = tested on: Ercc1^−/− MEFs; test: Reversal of senescence (SA-β-gal) of Ercc1−/− MEFs; type: cell-based, mouse; details: within 24 hours of treatment
[2] = tested on: aged WT MDSPCs; test: Myogenic fusion of aged MDSPCs with IKKβ inhibition; type: cell-based, mouse; design: dose or concentration left out as unconfirmed; details: under fusion conditions
Excerpt: To determine further whether the NF-κB signaling pathway plays a role in driving age-related stem cell dysfunction, whether pharmacologic inhibition of IKK-β would restore the myogenic potential of aged WT MDSPCs was examined. […] MDSPCs were isolated from 30 month old p65^+/− and 24 month old WT mice and compared the myogenic potential of 30 month old p65^+/− MDSPCs in vitro to naturally aged WT MDSPCs. The results confirmed that MDSPCs from p65^+/− aged mice (30 month) were more myogenic than MDSPCs from 24 month old WT mice.

[3] = tested on: Ercc1^−/Δ mice; test: Chronic treatment with mitochondrial radical scavenger in progeroid mice; type: in vivo, mouse

## O=C(c1ccc(Nc2nccc(-c3cc4ccccc4s3)n2)cc1)N1CCC(N2CCCC2)CC1 [IKKiVII]
[1]
  reversing senescence of Ercc1−/− MEFs (>60% of cells SA-β gal+): could be reversed

## NC(=O)Nc1sc(-c2ccc(F)cc2)cc1C(N)=O [IKKβ inhibitor IV]
[2]
  fusion index of aged MDSPCs: significantly increased

## CC(C)C[C@@H](/C=C/[C@H](Cc1ccccc1)C(=O)N1CCC[C@H]1C(=O)N[C@H](C(=O)N[C@@H](CCCNC(=O)OCc1ccccc1)C(=O)NC1CC(C)(C)N([O])C(C)(C)C1)C(C)C)NC(=O)OC(C)(C)C [XJB-5-131]
[3]
  onset of aging-related degenerative changes: delay the onset
